Experimental findings from patent publication US6291496A, “Treating cancers associated with overexpression of class I family of receptor tyrosine kinases” (priority 1999, dated 2001) are described below.

The assay concerns HER-2/neu positive colon cancer. Kind of assay: Example V: after resection of colon cancer. The assay is classed as in vivo, human. The note with it: patient, oral 5 mg/kg twice daily for five years after resection.

For `CC1(COc2ccc(CC3SC(=O)NC3=O)cc2)CCCCC1` (stereo not shown) [ciglitazone], the “recurrence of colon cancer” value is on record as “Recurrence of colon cancer does not occur”.
